Measured values reported in patent publication US20090076199A1, “RED DYE MIXTURE” (LANXESS DEUTSCHLAND GMBH, priority 2007, published 2009).

Experiments:
Assay type in all cases: physicochemical
[1] = Maximum solubility of the dyes in methyl benzoate and spectral data of the saturated solutions; settings: for Solubility (maximum solubility): in methyl benzoate; for E11 = Extinction (absorbance) of 1 g of this solution in 100 ml of N-methyl-pyrrolidone, 1 cm cell: saturated solution of the dye alone in methyl benzoate
Procedure: The maximum solubility of the dyes was determined in methyl benzoate.

[2] = Mass colouring of polycarbonate, twin-screw extruder at 290° C., fastness; settings: 0.03 g dye per 100 g polycarbonate
Procedure: c) 100 g of a commercially customary polycarbonate are dry-mixed in granule form with 0.03 g of the dye from Example 4. The granules dusted in this way are homogenized in a twin-screw extruder at 290° C. This gives a transparent bluish red coloration with good light fastness and migration fastness. The coloured polycarbonate is extruded as a strand from the extruder and processed to granules. The granules can be processed by the typical methods of processing thermoplastic compounds.

[3] = Mass colouring of transparent polyethylene terephthalate, twin-screw extruder at 280° C., fastness; settings: 0.025 g dye per 100 g transparent polyethylene terephthalate
Procedure: b) 0.025 g of the dye from Example 4 are mixed with 100 g of a transparent polyethylene terephthalate grade and the mixture is homogenized in a twin-screw extruder at 280° C. This gives a transparent bluish red coloration with good light fastness and migration fastness. After subsequent granulation the coloured plastic can be processed in accordance with the typical methods of thermoplastic shaping.

[4] = Mass colouring of polystyrene granules, injection moulding at 240° C., fastness; settings: 0.02 g dye per 100 g polystyrene, transparent sheets
Procedure: a) 100 g of polystyrene granules and 0.02 g of the dye from Example 4 are mixed intensely in a drum mixer for 15 min. The dry-stained granules are processed on a screw injection moulding machine at 240° C. This gives transparent bluish red sheets of very good light fastness and migration fastness.

Solubility (maximum solubility) [1]	E11 = Extinction (absorbance) of 1 g of this solution in 100 ml of N-methyl-pyrrolidone, 1 cm cell [1]	light fastness [2]	migration fastness [2]	light fastness [3]	migration fastness [3]	light fastness [4]	migration fastness [4]	Compound
0.107 g/100 ml	0.17	–	–	–	–	–	–	O=C1c2c(Cl)c(Cl)c(Cl)c(Cl)c2C2=Nc3cccc4cccc(c34)N12 [Dye (7), reference compound]
–	–	good	good	good	good	very good	very good	Nc1c(OCCOc2ccc(OCCOc3cc(O)c4c(c3N)C(=O)c3ccccc3C4=O)cc2)cc(O)c2c1C(=O)c1ccccc1C2=O [Example 4]
0.57 g/100 ml	1.8	–	–	–	–	–	–	Nc1c(Oc2ccc(C3(c4ccc(Oc5cc(O)c6c(c5N)C(=O)c5ccccc5C6=O)cc4)CCCCC3)cc2)cc(O)c2c1C(=O)c1ccccc1C2=O [Dye (15)]
